Common to all, as to experiment: Kinase selectivity, Mobility shift assay
What all share (format): biochemical

One test deals with CHK1 (Homo sapiens (Human), UniProt O14757). How it is done: (§1) Object: In this assay, the inhibitory activity of the test substance on the kinases listed in Table 3 was determined, and therefore the selectivity of the present compound was determined.
(§2) Except for the BRAF V600E kinase in Table 3, the Mobility shift assay was used for other kinases.
(§3) 1. Preparation of Agents:
(§4) • 1.1 1-fold kinase buffer without MnCl2: 50 mM HEPES, pH 7.5, 0.0015% Brij-35, 10 mM MgCl2, 2 mM DTT. • 1.2 1-fold kinase buffer with MnCl2: 50 mM HEPES, pH 7.5, 0.0015% Brij-35, 10 mM MgCl2, 10 mM MnCl2, 2 mM DTT. • 1.3 Termination solution: 100 mM HEPES, pH 7.5, 0.0015% Brij-35, 0.2% Coating Reagent#3, 50 mM EDTA. • 1.4 2.5-fold kinase solution: The kinase was added to the 1-fold kinase buffer to form a 2.5-fold kinase solution. • 1.5 2.5-fold substrate solution: FAM fluorescence-labelled polypeptide and ATP were added to the 1-fold kinase buffer to form a 2.5-fold substrate solution. 2. Preparation of 5-fold compound
(§5) The final test concentration of the compound was 10 μM at maximum. Firstly, a 50-fold concentration (i.e. 500 μM) was prepared with 100% DMSO. The compound was diluted with 100% DMSO by 5 folds at 5 concentrations (successively 500 μM, 100 μM, 20 μM, 4 μM, and 0.8 μM). After diluting with 1-fold kinase buffer by 10 folds, 5 μl of the samples were transferred to a 384-well reaction plate. Two negative control wells and two positive control wells were set at each line respectively. Replication was made in a 96-well plate in five concentrations of 5-fold compound. 10% DMSO was added to the positive control well, and 5 μl of EDTA (250 mM) was added to the negative control well.
(§6) • 3.1 To the 384-well reaction plate was added 5-fold compound dissolved in 10% DMSO at 5 μl/well. • 3.2 To the 384-well reaction plate was added 2.5-fold kinase solution at 10 μl/well. The plate was incubated at room temperature for 10 mins. • 3.3 To the 384-well reaction plate was added 2.5-fold substrate solution at 10 μl/well. The plate was incubated at 28° C. for a certain period. • 3.4 25 μl termination solution was added to terminate the reaction. The conversion was read from Caliper. 4. Inhibition rate calculation Inhibition rate (%)=(maximum−sample value)/(maximum−minimum)×100 • wherein: • maximum refers to the conversion at the DMSO control well, • minimum refers to the conversion at the control well without kinase. Lanthascreen Analysis Method for the BRAF V600E Kinase 1. Preparation of Agents: • 1.1 2-fold kinase solution: using 1-fold kinase buffer to prepare 2-fold kinase solution, with a final concentration of 0.35 nM of BRAFV600E; • 1.2 4-fold substrate solution: using 1-fold kinase buffer to prepare 4-fold substrate solution, with a final substrate solution concentration of 0.2 μM of Fluorescein-MAP2K1 and 1.5 μM of ATP. 2. Preparation of 4-fold compound • The final test concentration of the compound was 10 μM at maximum. Firstly, a 100-fold concentration (i.e. 1000 μM) was prepared with 100% DMSO. The compound was diluted with 100% DMSO by 5 folds at 5 concentrations. The compound series was identical to that in the Mobility Shift Assay. After diluting with 1-fold kinase buffer by 25 folds, the resulting samples were shaked and mixed evenly on a plate-shaker for 10 mins. 3. Procedure • 3.1 To the 384-well reaction plate was added 4-fold compound dissolved in 10% DMSO at 2.5 µl/well; • 3.2 To the 384-well reaction plate was added 2-fold kinase solution at 5 μl/well, and to the negative control wells were added 1-fold kinase buffer. The samples were shaked, mixed evenly, and kept standing at room temperature. • 3.3 To the 384-well reaction plate was added 4-fold substrate solution at 2.5 μl/well. The plate was reacted, shaked, mixed evenly and incubated at room temperature for one hour; • 3.4 Reaction result detection: 2-fold detection solution was prepared, with a final concentration of 2 nM of Antibody and 10 mM of EDTA. 10 μl of the detection solution was transferred to the 384-well plate to terminate the reaction. […]

The target in the next test is CDK2 (Homo sapiens (Human), UniProt P24941). How it is done:
as §1, §2, §3, §4, §5, §6

The next test has as its target JAK2 (Homo sapiens (Human), UniProt O60674). The procedure:
as §1, §2, §3, §4, §5, §6

The target in the next test is PDGFRb (Homo sapiens (Human), UniProt P09619). How it is done:
as §1, §2, §3, §4, §5, §6

Another test concerns the target CSK (Homo sapiens (Human), UniProt P41240). How it is done: as §1, §2, §3, §4, §5, §6
A further test addresses CMET (Homo sapiens (Human), UniProt P08581). How it is done: as §1, §2, §3, §4, §5, §6
A further test concerns the target MSK1 (Homo sapiens (Human), UniProt O75582). How it is done: as §1, §2, §3, §4, §5, §6
The next test concerns the target ALK (Homo sapiens (Human), UniProt Q9UM73). How it is done: as §1, §2, §3, §4, §5, §6
The next test addresses CAMK2a (Homo sapiens (Human), UniProt Q9UQM7). The procedure:
as §1, §2, §3, §4, §5, §6

For the next test, the target named is PKD1 (Homo sapiens (Human), UniProt Q15139). The procedure: as §1, §2, §3, §4, §5, §6
Another test concerns the target MST2 (Homo sapiens (Human), UniProt Q13188). How it is done: as §1, §2, §3, §4, §5, §6
The next test deals with ABL (Homo sapiens (Human), UniProt P00519). How it is done:
as §1, §2, §3, §4, §5, §6

The target of a further test is GSK3β (Homo sapiens (Human), UniProt P49841). The procedure: as §1, §2, §3, §4, §5, §6
A further test addresses FES (Homo sapiens (Human), UniProt P07332). The procedure:
as §1, §2, §3, §4, §5, §6

The target in another test is DYRK1b (Homo sapiens (Human), UniProt Q9Y463). The procedure:
as §1, §2, §3, §4, §5, §6

The target in the next test is PAK2 (Homo sapiens (Human), UniProt Q13177). How it is done:
as §1, §2, §3, §4, §5, §6

For the next test, the target named is NEK2 (Homo sapiens (Human), UniProt P51955). How it is done:
as §1, §2, §3, §4, §5, §6

A further test deals with ROCK2 (Homo sapiens (Human), UniProt O75116). The procedure:
as §1, §2, §3, §4, §5, §6

A further test addresses IGF1R (Homo sapiens (Human), UniProt P08069). The procedure: as §1, §2, §3, §4, §5, §6

SMILES strings stand for the structures.

Data on one compound can be found in patent US9365572B2, “PI3K and/or mTOR inhibitor” (XUANZHU PHARMA CO., LTD., priority 2012, dated 2016).

Chain of CSK (P41240 whole entry, species assumed): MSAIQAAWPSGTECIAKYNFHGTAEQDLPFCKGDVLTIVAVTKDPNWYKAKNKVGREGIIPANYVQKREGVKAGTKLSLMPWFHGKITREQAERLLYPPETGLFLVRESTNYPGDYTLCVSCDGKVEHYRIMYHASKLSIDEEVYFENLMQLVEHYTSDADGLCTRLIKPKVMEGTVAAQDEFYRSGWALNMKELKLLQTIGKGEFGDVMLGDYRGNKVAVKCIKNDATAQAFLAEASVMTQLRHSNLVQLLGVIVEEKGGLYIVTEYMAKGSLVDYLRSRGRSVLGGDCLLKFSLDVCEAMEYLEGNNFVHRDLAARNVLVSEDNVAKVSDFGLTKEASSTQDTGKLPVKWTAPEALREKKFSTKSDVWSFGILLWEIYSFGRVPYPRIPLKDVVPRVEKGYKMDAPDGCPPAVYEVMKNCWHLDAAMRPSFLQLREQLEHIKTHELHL
Chain of DYRK1b (Q9Y463 whole entry, species assumed): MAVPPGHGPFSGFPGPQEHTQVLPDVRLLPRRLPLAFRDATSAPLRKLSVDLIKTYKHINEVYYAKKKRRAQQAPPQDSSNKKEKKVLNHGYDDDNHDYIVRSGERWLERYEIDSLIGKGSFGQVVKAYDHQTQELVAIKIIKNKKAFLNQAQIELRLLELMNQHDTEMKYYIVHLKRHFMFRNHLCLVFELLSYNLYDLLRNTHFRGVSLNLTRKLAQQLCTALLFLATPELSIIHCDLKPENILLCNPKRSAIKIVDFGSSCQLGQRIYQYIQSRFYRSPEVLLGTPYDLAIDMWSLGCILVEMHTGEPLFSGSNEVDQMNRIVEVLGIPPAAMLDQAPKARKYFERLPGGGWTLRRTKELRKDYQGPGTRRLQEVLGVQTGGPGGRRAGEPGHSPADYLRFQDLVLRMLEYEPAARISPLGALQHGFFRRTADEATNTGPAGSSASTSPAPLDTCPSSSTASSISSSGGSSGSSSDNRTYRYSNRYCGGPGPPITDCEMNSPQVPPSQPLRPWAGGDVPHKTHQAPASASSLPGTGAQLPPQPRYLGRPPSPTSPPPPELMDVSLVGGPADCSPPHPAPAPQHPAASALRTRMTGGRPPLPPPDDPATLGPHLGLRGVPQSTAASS
Chain of JAK2 (O60674 whole entry, species assumed): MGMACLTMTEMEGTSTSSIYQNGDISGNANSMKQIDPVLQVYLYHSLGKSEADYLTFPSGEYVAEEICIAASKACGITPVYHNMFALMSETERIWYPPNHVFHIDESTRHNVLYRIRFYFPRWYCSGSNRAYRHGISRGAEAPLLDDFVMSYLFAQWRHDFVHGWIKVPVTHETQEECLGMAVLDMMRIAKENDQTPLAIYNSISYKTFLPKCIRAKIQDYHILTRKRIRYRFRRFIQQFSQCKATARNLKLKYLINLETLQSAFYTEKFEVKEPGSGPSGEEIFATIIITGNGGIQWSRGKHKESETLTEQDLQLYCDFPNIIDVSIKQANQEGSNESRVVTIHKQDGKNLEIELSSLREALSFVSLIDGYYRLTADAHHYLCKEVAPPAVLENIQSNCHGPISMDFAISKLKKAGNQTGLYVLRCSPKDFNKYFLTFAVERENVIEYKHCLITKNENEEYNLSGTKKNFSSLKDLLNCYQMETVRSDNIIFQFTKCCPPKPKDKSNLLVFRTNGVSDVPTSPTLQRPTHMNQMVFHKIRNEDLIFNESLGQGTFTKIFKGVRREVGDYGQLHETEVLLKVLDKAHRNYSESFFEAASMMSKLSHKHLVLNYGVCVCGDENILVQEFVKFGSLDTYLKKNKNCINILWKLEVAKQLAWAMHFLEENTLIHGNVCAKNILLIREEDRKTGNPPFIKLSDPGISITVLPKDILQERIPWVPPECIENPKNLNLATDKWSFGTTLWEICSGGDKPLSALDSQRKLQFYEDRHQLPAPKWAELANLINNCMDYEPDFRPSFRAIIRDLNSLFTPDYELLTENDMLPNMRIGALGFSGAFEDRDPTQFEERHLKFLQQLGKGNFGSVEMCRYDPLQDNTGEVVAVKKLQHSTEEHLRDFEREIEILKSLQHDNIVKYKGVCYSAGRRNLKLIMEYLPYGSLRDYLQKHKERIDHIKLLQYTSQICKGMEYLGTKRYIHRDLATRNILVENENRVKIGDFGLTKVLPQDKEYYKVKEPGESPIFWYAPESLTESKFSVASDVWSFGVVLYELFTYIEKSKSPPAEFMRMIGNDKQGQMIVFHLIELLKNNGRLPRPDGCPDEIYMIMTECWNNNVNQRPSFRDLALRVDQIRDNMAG
Chain of NEK2 (P51955 whole entry, species assumed): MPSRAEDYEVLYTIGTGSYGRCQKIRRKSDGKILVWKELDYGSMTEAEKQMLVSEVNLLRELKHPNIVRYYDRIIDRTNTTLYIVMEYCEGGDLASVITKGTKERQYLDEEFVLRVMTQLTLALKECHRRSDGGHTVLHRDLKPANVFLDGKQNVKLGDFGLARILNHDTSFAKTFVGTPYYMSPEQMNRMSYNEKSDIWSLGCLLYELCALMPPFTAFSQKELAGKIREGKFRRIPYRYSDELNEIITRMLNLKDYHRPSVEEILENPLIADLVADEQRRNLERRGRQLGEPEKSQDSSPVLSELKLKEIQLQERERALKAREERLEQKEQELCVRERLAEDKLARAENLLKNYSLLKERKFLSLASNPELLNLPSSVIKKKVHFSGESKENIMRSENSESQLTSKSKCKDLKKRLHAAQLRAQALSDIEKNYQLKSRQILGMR
Chain of FES (P07332 whole entry, species assumed): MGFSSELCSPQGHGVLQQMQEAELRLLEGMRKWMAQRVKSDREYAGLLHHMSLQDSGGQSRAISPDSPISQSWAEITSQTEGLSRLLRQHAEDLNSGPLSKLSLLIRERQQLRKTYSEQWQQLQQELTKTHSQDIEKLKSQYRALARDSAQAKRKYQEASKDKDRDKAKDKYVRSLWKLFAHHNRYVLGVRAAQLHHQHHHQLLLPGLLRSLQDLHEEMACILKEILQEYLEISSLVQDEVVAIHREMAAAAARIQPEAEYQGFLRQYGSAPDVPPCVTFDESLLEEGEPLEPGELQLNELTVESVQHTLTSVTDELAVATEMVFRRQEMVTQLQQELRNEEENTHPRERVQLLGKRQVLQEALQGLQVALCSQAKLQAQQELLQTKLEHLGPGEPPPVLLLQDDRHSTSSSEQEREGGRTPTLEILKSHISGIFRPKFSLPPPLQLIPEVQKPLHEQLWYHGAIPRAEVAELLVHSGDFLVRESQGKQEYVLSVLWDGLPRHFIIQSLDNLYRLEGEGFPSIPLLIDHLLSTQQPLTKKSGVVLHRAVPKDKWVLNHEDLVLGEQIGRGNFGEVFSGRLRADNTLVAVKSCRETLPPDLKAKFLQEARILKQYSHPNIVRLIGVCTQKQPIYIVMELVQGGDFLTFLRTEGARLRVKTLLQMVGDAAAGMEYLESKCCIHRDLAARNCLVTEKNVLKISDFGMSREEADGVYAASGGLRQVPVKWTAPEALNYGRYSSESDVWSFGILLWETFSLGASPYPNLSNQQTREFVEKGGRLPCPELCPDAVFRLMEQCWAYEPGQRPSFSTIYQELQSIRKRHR
Chain of IGF1R (P08069 31-1367, species assumed): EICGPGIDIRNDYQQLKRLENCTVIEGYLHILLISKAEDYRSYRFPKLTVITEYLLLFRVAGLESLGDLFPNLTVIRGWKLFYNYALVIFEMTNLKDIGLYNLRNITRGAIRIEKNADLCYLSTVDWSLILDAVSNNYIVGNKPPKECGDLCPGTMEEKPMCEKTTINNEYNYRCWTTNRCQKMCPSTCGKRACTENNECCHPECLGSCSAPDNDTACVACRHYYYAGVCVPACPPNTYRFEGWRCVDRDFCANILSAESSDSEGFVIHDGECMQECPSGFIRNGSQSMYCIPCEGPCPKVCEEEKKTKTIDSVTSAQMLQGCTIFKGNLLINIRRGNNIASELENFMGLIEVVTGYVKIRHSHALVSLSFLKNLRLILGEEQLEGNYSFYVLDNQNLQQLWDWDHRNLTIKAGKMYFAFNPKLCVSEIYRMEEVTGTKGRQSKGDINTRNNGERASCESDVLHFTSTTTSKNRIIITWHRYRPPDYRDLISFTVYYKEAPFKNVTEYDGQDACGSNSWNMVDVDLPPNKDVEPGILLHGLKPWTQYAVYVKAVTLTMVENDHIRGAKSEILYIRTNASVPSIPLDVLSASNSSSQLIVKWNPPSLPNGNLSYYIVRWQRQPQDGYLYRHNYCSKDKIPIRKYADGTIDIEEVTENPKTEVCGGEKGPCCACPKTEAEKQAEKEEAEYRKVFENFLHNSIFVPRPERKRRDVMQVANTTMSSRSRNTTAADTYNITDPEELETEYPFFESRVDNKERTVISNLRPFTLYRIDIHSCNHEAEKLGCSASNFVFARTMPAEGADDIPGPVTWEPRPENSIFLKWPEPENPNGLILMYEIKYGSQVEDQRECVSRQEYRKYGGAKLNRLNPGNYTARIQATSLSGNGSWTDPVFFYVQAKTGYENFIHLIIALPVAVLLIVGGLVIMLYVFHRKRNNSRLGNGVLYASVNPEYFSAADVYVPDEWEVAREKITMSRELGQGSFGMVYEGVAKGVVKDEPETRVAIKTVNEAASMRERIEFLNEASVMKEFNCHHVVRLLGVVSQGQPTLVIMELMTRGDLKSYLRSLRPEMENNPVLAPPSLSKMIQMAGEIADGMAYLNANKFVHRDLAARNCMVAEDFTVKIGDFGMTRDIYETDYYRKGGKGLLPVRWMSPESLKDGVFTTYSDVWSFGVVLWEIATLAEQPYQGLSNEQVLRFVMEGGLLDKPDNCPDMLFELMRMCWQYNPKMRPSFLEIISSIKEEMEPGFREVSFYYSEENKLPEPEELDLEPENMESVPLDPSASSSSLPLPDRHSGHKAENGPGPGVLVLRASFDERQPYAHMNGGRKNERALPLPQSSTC

Regarding `Nc1ccc(-c2ccc3ncc4c(=O)[nH]c(=O)n(-c5cccc(C(F)(F)F)c5)c4c3n2)cn1` [Compound 5, 9-(6-aminopyridin-3-yl)-1-(3-(trifluoromethyl)phenyl)pyrimido[5,4-c][1,5]naphthyridine-2,4(1H,3H)-dione], the IC50 on CHK1, on CDK2, on JAK2, on PDGFRb, on CSK and at CMET was greater than 10000 nM each time. In addition, the IC50 at MSK1 is greater than 10000 nM; at ALK, 1170 nM; on CAMK2a it was greater than 10000 nM; at PKD1, 2410 nM; on MST2, greater than 10000 nM; on ABL it was greater than 10000 nM. Further, the concentration for half-maximal inhibition (IC50) at GSK3β, at FES, at DYRK1b, at PAK2, on NEK2 and on ROCK2 was greater than 10000 nM each time. Also, the IC50 on IGF1R is greater than 10000 nM.

As a reminder, the IC50 is the concentration at which inhibition is half-maximal.
